The target in this test is Genome polyprotein (West Nile virus, UniProt P06935). The test can be described thus: West Nile NS2B-NS3 proteinase blockers – biochemical, confirmation, dose response (AID 653).

pIC50: −log10 of the molar value. Where a name gives a salt, the structure may show the parent alone.

Chain of Genome polyprotein (P06935 1371-1501 limits assumed): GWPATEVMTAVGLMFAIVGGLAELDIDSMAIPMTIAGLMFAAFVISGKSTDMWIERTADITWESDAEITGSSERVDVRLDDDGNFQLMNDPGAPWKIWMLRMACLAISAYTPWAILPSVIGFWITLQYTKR
Chain of Genome polyprotein (P06935 1502-2120 limits assumed): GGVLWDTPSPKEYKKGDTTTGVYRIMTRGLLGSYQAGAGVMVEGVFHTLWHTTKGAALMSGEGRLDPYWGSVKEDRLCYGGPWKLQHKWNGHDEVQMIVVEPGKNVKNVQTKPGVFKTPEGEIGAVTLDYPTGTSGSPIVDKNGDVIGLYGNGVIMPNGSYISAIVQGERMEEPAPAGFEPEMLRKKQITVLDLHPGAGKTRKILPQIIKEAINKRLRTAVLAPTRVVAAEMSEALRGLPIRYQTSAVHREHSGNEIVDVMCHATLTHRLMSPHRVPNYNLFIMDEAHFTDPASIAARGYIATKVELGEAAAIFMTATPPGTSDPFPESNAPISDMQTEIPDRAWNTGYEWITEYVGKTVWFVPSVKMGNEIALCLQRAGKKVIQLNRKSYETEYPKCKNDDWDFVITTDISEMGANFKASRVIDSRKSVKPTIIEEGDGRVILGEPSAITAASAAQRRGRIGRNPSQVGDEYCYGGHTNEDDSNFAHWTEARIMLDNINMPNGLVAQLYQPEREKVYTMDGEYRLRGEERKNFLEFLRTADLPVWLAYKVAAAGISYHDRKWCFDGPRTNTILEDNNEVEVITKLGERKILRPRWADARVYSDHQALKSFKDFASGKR

As to `Cc1cccc(N(C)C(=S)Oc2ccc3ccccc3c2)c1` [MLS000028526], the pIC50 is less than 4.30.

In the case of `CC(C)(S)[C@@H](N)C(=O)O` [MLS000028669], the pIC50 is less than 4.30.

`CCC(=O)O[C@]1(C(=O)CCl)[C@@H](C)C[C@H]2[C@@H]3CCC4=CC(=O)C=C[C@]4(C)[C@@]3(F)[C@@H](O)C[C@@]21C` [MLS000028708]: the pIC50 is less than 4.30.

Regarding `CCOc1ccccc1N(CC(=O)NC1CCCC1)C(=O)CCC(=O)Nc1cc(C)on1` [MLS000032086], the negative-log IC50 (pIC50) is less than 4.30.

`COc1ccccc1-n1c(C)nnc1SCC(=O)Nc1cc(C)cc(C)c1` [MLS000032151]: the pIC50 is less than 4.30.

On to `Cc1ccc(S(=O)(=O)n2nc(OC(=O)c3ccco3)cc2N)cc1` [MLS000033865], for which the pIC50 was 4.84.

In the case of `COc1ccc(S(=O)(=O)n2nc(OC(=O)c3ccco3)cc2N)cc1` [MLS000033887], the pIC50 was 6.26.

Consider `CC(=O)Nc1nc2ccccc2n1CCOc1ccccc1Cl` [MLS000034055], for which the pIC50 was less than 4.30.

As for `Cc1ccc(OCC(=O)Nc2ccc(-c3nnc(-c4ccco4)o3)cc2)cc1` [MLS000039074], the pIC50 is less than 4.30.

In turn, `COc1ccc(C2C3=C(CC(C)(C)CC3=O)Oc3ncn4nc(-c5cccnc5)nc4c32)cc1OC` (stereo unspecified) [MLS000040750] had a pIC50 of less than 4.30.

Compound `CCn1c(SCC(=O)Nc2ccc3c(c2)c2ccccc2n3CC)nnc1-c1ccco1` [MLS000050867] gave a pIC50 of 4.32.

`CCS(=O)(=O)N1Cc2ccccc2CC1C(=O)N1CCN(c2cccc(C)c2C)CC1` (stereo unspecified) [MLS000053522] showed a pIC50 of 4.41.

In the case of `CCN(CC(=O)Nc1ccccc1OC)C(=O)C1CC2C=CC1C2` (stereo unspecified) [MLS000053693], the pIC50 was less than 4.30.

`Cc1sc2nc3c4ccccc4c(NCc4ccco4)nn3c(=O)c2c1C` [MLS000056809] gave a pIC50 of less than 4.30.

On to `CCN(Cc1ccccc1)C(=O)c1ccccc1C` [MLS000058902], for which the pIC50 was less than 4.30.

On to `Cn1nnc2cc(C(=O)NC3CCCCC3)ccc21` [MLS000063766], for which the pIC50 is less than 4.30.

The compound `Nc1ccc(S(=O)(=O)Nc2ccccn2)cc1` [MLS000069725] had a pIC50 of less than 4.30.

`COc1ccc(OC)c(NS(=O)(=O)c2cccs2)c1` [MLS000070319] had a pIC50 of less than 4.30.

As to `COc1ccc2nc(NC(=O)CSc3nc4cccnc4n3C)sc2c1` [MLS000072990], the pIC50 is less than 4.30.

`CCCn1c(SCC(=O)Nc2ccc3c(c2)OCCO3)nnc1-c1ccco1` [MLS000073448] showed a pIC50 of less than 4.30.

The compound `COC(=O)c1[nH]c2cc(OC)ccc2c1NC(=O)c1ccc2c(c1)OCO2` [MLS000081144] showed a pIC50 of less than 4.30.

Consider `CCN1CCN(CNC(=O)c2cnccn2)CC1` [MLS000082173], for which the pIC50 is less than 4.30.

In turn, `O=S(=O)(c1ccc(F)cc1)N(CCO)CC(O)Cn1c2ccccc2c2ccccc21` (stereo unspecified) [MLS000088265] showed a pIC50 of less than 4.30.

On to `Cc1ccc(Cl)cc1NC(=O)c1ocnc1C` [MLS000092879], for which the pIC50 is less than 4.30.

In turn, `COc1ccc(N2CCN(C(CNC(=O)Oc3ccccc3)c3cccnc3)CC2)cc1` (stereo unspecified) [MLS000094397] showed a pIC50 of less than 4.30.

With `CC(C)CCN1CC(C(=O)NCc2ccc(F)cc2)CC1=O` (stereo unspecified) [MLS000096189], the pIC50 was less than 4.30.

On to `COc1ccc(C(=O)c2oc3ccc(Br)cc3c2NC(C)=O)cc1` [MLS000115316], for which the pIC50 is less than 4.30.

For `Cc1ccc(NC(=O)C2C3CC4OC(=O)C2C4C3)cc1Cl` (stereo unspecified) [N-(3-chloro-4-methylphenyl)-5-oxo-4-oxatricyclo[4.2.1.0~3,7~]nonane-9-carboxamide], the pIC50 was less than 4.30.

On to `CCN1CCN(C(=O)N[C@@H](C(=O)N[C@@H]2C(=O)N3[C@@H]2SC(C)(C)[C@@H]3C(=O)O)c2ccccc2)C(=O)C1=O` [PIPERACILLIN SODIUM SALT], for which the pIC50 was less than 4.30.

`O=C(OC1CCCCC1)c1ccc2c(c1)C1C=CCC1C(C(=O)O)N2` (stereo unspecified) [SMR000019385] gave a pIC50 of less than 4.30.

On to `Nc1cc(OC(=O)c2cccs2)nn1S(=O)(=O)c1ccccc1` [SMR000021562], for which the pIC50 is 5.62.

With `OCCNC1=NCCN1` [SMR000038385], the pIC50 is less than 4.30.

Regarding `NC(=O)NC1CCCc2c1[nH]c1ccc(Cl)cc21` (stereo unspecified) [SMR000091683], the pIC50 is less than 4.30.

The compound `Cc1cc(OC(=O)c2ccccc2)n(CCC#N)n1` [[2-(2-cyanoethyl)-5-methyl-pyrazol-3-yl] benzoate] had a pIC50 of 5.87.

In turn, `Nc1ncnc2c1ncn2[C@@H]1O[C@H](CO)[C@@H](O)[C@H]1O` [[U-14C]adenosine] showed a pIC50 of less than 4.30.

As for `COC(=O)CSC1=NC2=C(C(=O)CCC2)C(c2ccc(C)cc2)C1C#N` (stereo unspecified) [methyl 2-[[3-cyano-4-(4-methylphenyl)-5-oxo-4,6,7,8-tetrahydro-1H-quinolin-2-yl]sulfanyl]acetate], the pIC50 is less than 4.30.

For orientation: pIC50 means −log10 of the IC50, conventionally taken in molar units. A higher pIC50 goes with a low IC50.

The values above are taken from BindingDB's records for doi:10.7270/Q2222S6W (University of Pittsburgh, 2007).
